Test results from patent US12421211B2, “Heterocyclic compounds” (Hoffmann-La Roche Inc., priority 2021, dated 2025).
Structures can show the parent of a compound that is named as a salt.

Each compound was assayed on Acinetobacter baumannii ATCC17961 (assay: Antimicrobial susceptibility testing: 90% growth inhibitory concentration (IC90) determination). Settings: 90% growth inhibitory concentration, Acinetobacter baumannii ATCC17961, Iso-Sensitest broth, OD 600 nm over 16 h; read-out: ATCC 17961 IC90.
Format: cell-based
Outline: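 A. baumannii ATCC17961 at ~5×10^5 CFU/ml in Iso-Sensitest broth exposed to 10-point twofold dilutions (e.g. 50–0.097 μM final), 35±2° C. OD600 read every 20 minutes over 16h; IC50 and IC90 derived from inhibition during logarithmic growth.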

| Compound | IC90 |
| --- | --- |
| Cc1nn(CCOC(F)F)cc1-c1ccc(-c2cnc(C(=O)Nc3ccc(C(=O)N4CCN(C(=O)C5CC[N+](CC(=O)[O-])(CC6CNC6)CC5)CC4)c(Cl)c3)n2C)c(F)c1F (stereo not drawn) [Example N4, cis 2-[1-(azetidin-3-ylmethyl)-4-[4-[2-chloro-4-[[5-[4-[1-[2-(difluoromethoxy)ethyl]-3-methyl-pyrazol-4-yl]-2,3-difluoro-phenyl]-1-methyl-imidazole-2-carbonyl]amino]benzoyl]piperazine-1-carbonyl]piperidin-1-ium-1-yl]acetate] | 108 nM |

Same assay, conditions: Acinetobacter baumannii, ATCC17961, 16 h, 90% growth inhibitory concentration, Acinetobacter baumannii ATCC17961, Iso-Sensitest broth, OD 600 nm over 16 h; read-out: ATCC 17961 IC90

| Compound | IC90 |
| --- | --- |
| COCCn1ncc(-c2ccc(-c3cnc(C(=O)Nc4ccc(C(=O)N5CCN(C(=O)C6CCNC(=O)C6)CC5)c(Cl)c4)n3C)c(F)c2F)c1C (stereo not drawn) [Example D27, N-[3-chloro-4-[4-(2-oxopiperidine-4-carbonyl)piperazine-1-carbonyl]phenyl]-5-[2,3-difluoro-4-[1-(2-methoxyethyl)-5-methyl-pyrazol-4-yl]phenyl]-1-methyl-imidazole-2-carboxamide; 2,2,2-trifluoroacetic acid] | 230 nM |
| CC(O)Cn1cc(-c2ccc(-c3cnc(C(=O)Nc4ccc(C(=O)N5CCN(C(=O)C6CC[N+](C)(C)CC6)CC5)c(Cl)c4)n3C)c(F)c2F)c(C(F)(F)F)n1 (stereo not drawn) [Example F33, N-[3-chloro-4-[4-(1,1-dimethylpiperidin-1-ium-4-carbonyl)piperazine-1-carbonyl]phenyl]-5-[2,3-difluoro-4-[1-(2-hydroxypropyl)-3-(trifluoromethyl)pyrazol-4-yl]phenyl]-1-methyl-imidazole-2-carboxamide; formate] | 360 nM |
| COCCn1cc(-c2ccc(-c3cnc(C(=O)Nc4ccc(C(=O)N5CCN(C(=O)C6CC[N+](C)(C)CC6)CC5)c(Cl)c4)n3C)c(F)c2F)c(CO)n1 [Example F25, N-[3-chloro-4-[4-(1,1-dimethylpiperidin-1-ium-4-carbonyl)piperazine-1-carbonyl]phenyl]-5-[2,3-difluoro-4-[3-(hydroxymethyl)-1-(2-methoxyethyl)pyrazol-4-yl]phenyl]-1-methyl-imidazole-2-carboxamide; formate] | 1200 nM |
| Cc1c(-c2ccc(-c3cnc(C(=O)Nc4ccc(C(=O)N5CCN(C(=O)C6CC[N+](C)(C)CC6)CC5)c(Cl)c4)n3C)c(F)c2F)cnn1CCNC(=O)Nc1ccccn1 [Example H6, N-[3-chloro-4-[4-(1,1-dimethylpiperidin-1-ium-4-carbonyl)piperazine-1-carbonyl]phenyl]-5-[2,3-difluoro-4-[5-methyl-1-[2-(2-pyridylcarbamoylamino)ethyl]pyrazol-4-yl]phenyl]-1-methyl-imidazole-2-carboxamide; formate] | 170 nM |
| Cc1nn(CC(=O)Nc2cccnn2)cc1-c1ccc(-c2cnc(C(=O)Nc3ccc(C(=O)N4CCN(C(=O)C5CC[N+](C)(C)CC5)CC4)c(Cl)c3)n2C)c(F)c1F [Example G23, N-[3-chloro-4-[4-(1,1-dimethylpiperidin-1-ium-4-carbonyl)piperazine-1-carbonyl]phenyl]-5-[2,3-difluoro-4-[3-methyl-1-[2-oxo-2-(pyridazin-3-ylamino)ethyl]pyrazol-4-yl]phenyl]-1-methyl-imidazole-2-carboxamide; formate] | 270 nM |
| Cc1nn(CC(=O)Nc2cccnc2)cc1-c1ccc(-c2cnc(C(=O)Nc3ccc(C(=O)N4CCN(C(=O)C5CC[N+](C)(C)CC5)CC4)c(Cl)c3)n2C)c(F)c1F [Example G27, N-[3-chloro-4-[4-(1,1-dimethylpiperidin-1-ium-4-carbonyl)piperazine-1-carbonyl]phenyl]-5-[2,3-difluoro-4-[3-pyridylamino)ethyl] pyrazol-4-yl]phenyl]-1-methyl-imidazole-2-carboxamide; formate] | 120 nM |
| Cc1nn(CC(=O)Nc2ccc(C#N)nc2)cc1-c1ccc(-c2cnc(C(=O)Nc3ccc(C(=O)N4CCN(C(=O)C5CC[N+](C)(C)CC5)CC4)c(Cl)c3)n2C)c(F)c1F [Example G34, N-[3-chloro-4-[4-(1,1-dimethylpiperidin-1-ium-4-carbonyl)piperazine-1-carbonyl]phenyl]-5-[4-[1-[2-[(6-cyano-3-pyridyl)amino]-2-oxo-ethyl]-3-methyl-pyrazol-4-yl]-2,3-difluoro-phenyl]-1-methyl-imidazole-2-carboxamide; formate] | 68 nM |
| COCCn1cc(-c2ccc(-c3cnc(C(=O)Nc4ccc(C(=O)N5CCN(C(=O)[C@@H]6[C@@H](O)CC[N+]6(C)C)CC5)c(Cl)c4)n3C)c(F)c2F)c(C)n1 [Example D1, N-[3-chloro-4-[4-[(2S,3S)-3-hydroxy-1,1-dimethyl-pyrrolidin-1-ium-2-carbonyl]piperazine-1-carbonyl]phenyl]-5-[2,3-difluoro-4-[1l-(2-methoxyethyl)-3-methyl-pyrazol-4-yl]phenyl]-1-methyl-imidazole-2-carboxamide; formate] | 280 nM |
| Cc1n[nH]cc1-c1ccc(-c2cnc(C(=O)Nc3ccc(C(=O)N4CCN(C(=O)C[N+](C)(C)C)CC4)c(Cl)c3)n2C)c(F)c1F [Example D35, [2-[4-[2-chloro-4-[[5-[2,3-difluoro-4-(3-methyl-1H-pyrazol-4-yl)phenyl]-1-methyl-imidazole-2-carbonyl]amino]benzoyl]piperazin-1-yl]-2-oxo-ethyl]-trimethyl-ammonium; formate] | 170 nM |
| COCCn1ncc(-c2ccc(-c3cnc(C(=O)Nc4ccc(C(=O)N5CCN(C(=O)CCC[N+](C)(CCCN)CCCN)CC5)c(Cl)c4)n3C)c(F)c2F)c1C [Example P3, bis(3-aminopropyl)-[4-[4-[2-chloro-4-[[5-[2,3-difluoro-4-[1-(2-methoxyethyl)-5-methyl-pyrazol-4-yl]phenyl]-1-methyl-imidazole-2-carbonyl]amino]benzoyl]piperazin-1-yl]-4-oxo-butyl]-methyl-ammonium; formate] | 293 nM |
| COCCn1cc(-c2ccc(-c3cnc(C(=O)Nc4ccc(C(=O)N5CCN(C(=O)C[N+]6(C)CCC(C(N)=O)C6)CC5)c(Cl)c4)n3C)c(F)c2F)c(C)n1 (stereo not drawn) [Example C7, N-[4-[4-[2-(3-carbamoyl-1-methyl-pyrrolidin-1-ium-1-yl)acetyl]piperazine-1-carbonyl]-3-chloro-phenyl]-5-[2,3-difluoro-4-[1-(2-methoxyethyl)-3-methyl-pyrazol-4-yl]phenyl]-1-methyl-imidazole-2-carboxamide; formate] | 140 nM |

Same assay, conditions: Acinetobacter baumannii, ATCC17961, 16 h, read-out: ATCC 17961 IC90

| Compound | IC90 |
| --- | --- |
| COCCn1ncc(-c2ccc(-c3cnc(C(=O)Nc4ccc(C(=O)N5CCN(C(=O)C[N+](C)(C)C)CC5)c(Cl)c4)n3C)c(F)c2F)c1C [Example A8, [2-[4-[2-chloro-4-[[5-[2,3-difluoro-4-[1-(2-methoxyethyl)-5-methyl-pyrazol-4-yl]phenyl]-1-methyl-imidazole-2-carbonyl]amino]benzoyl]piperazin-1-yl]-2-oxo-ethyl]-trimethyl-ammonium; 2,2,2-trifluoroacetate] | 53 nM |
| Cc1c(-c2cnc(C(=O)Nc3ccc(C(=O)N4CCN(C(=O)CCC[N+](C)(CCCN)CC(=O)O)CC4)c(Cl)c3)n2C)ccc(-c2cnn(CCOC(F)F)c2C)c1F (stereo not drawn) [Example N3, 3-aminopropyl-(carboxymethyl)-[4-[4-[2-chloro-4-[[5-[4-[1-[2-(difluoromethoxy)ethyl]-5-methyl-pyrazol-4-yl]-3-fluoro-2-methyl-phenyl]-1-methyl-imidazole-2-carbonyl]amino]benzoyl]piperazin-1-yl]-4-oxo-butyl]-methyl-ammonium; formate] | 352 nM |
| Cc1nn(CC(F)F)cc1-c1ccc(-c2cnc(C(=O)Nc3ccc(C(=O)N4CCN(C(=O)C5CC[N+](C)(CC(N)=O)CC5)CC4)c(Cl)c3)n2C)c(F)c1F (stereo not drawn) [Example B7, N-[4-[4-[1-(2-amino-2-oxo-ethyl)-1-methyl-piperidin-1-ium-4-carbonyl]piperazine-1-carbonyl]-3-chloro-phenyl]-5-[4-[1-(2,2-difluoroethyl)-3-methyl-pyrazol-4-yl]-2,3-difluoro-phenyl]-1-methyl-imidazole-2-carboxamide; formate] | 170 nM |
| COCCn1ncc(-c2ccc(-c3cnc(C(=O)Nc4ccc(C(=O)N[C@H]5[C@@H]6CN(C(=O)C7CC[N+](CC(=O)O)(CC8CNC8)CC7)C[C@@H]65)c(Cl)c4)n3C)c(F)c2F)c1C (stereo partly drawn) [Example O2, 2-[1-(azetidin-3-ylmethyl)-4-[(1S,5R) 6-[[2-chloro-4-[[5-[2,3-difluoro-4-[1-(2-methoxyethyl)-5-methyl-pyrazol-4-yl]phenyl]-1-methyl-imidazole-2-carbonyl]amino]benzoyl]amino]-3-azabicyclo[3.1.0]hexane-3-carbonyl]piperidin-1-ium-1-yl]acetic acid formate] | 362 nM |
| COCCn1ncc(-c2ccc(-c3cnc(C(=O)Nc4ccc(C(=O)N5CCN(C(=O)C6CC[N+](C)(CC(F)F)CC6)CC5)c(Cl)c4)n3C)c(F)c2F)c1C (stereo not drawn) [Example B32, N-[3-chloro-4-[4-[1-(2,2-difluoroethyl)-1-methyl-piperidin-1-ium-4-carbonyl]piperazine-1-carbonyl]phenyl]-5-[2,3-difluoro-4-[1-(2-methoxyethyl)-5-methyl-pyrazol-4-yl]phenyl]-1-methyl-imidazole-2-carboxamide; 2,2,2-trifluoroacetate] | 58 nM |
| Cc1n[nH]cc1-c1ccc(-c2cnc(C(=O)Nc3ccc(C(=O)N4CCN(C(=O)[C@@H]5C[C@@H](O)C[N+]5(C)CCO)CC4)c(Cl)c3)n2C)c(F)c1F (stereo partly drawn) [Example B36, N-[3-chloro-4-[4-[(2S,4R)-4-hydroxy-1-(2-hydroxyethyl)-1-methyl-pyrrolidin-1-ium-2-carbonyl]piperazine-1-carbonyl]phenyl]-5-[2,3-difluoro-4-(3-methyl-1H-pyrazol-4-yl)phenyl]-1-methyl-imidazole-2-carboxamide; 2,2,2-trifluoroacetate] | 110 nM |
